≈ marks a conversion by molar mass, not a printed value. Like-named read-outs stand apart in the source and are kept apart here.
Tested on: Oseltamivir resistant strain virus
Assay: microbe, parasite or virus in culture
Assay type: cell-based, influenza virus
[1] = unidentified influenza virus, read-out: EC50

SMILES | SI value | antiviral activity effect on a virus strain resistant to Oseltamivir (tamiflu) (in words) | EC50 [1] | antiviral activity effect on a virus strain resistant to Oseltamivir (tamiflu) | EC50 (Oseltamivir resistant strain)
COc1cccc(N2CCN(C(=O)c3c(-c4ccccc4C(F)(F)F)noc3C)CC2)c1 [Example 3, (4-(3-methoxyphenyl)piperazine-1-yl)(5-methyl-3-(2-(trifluoromethyl)phenyl)isoxazol-4-yl)methanone] | 3276.59 to 9812.50 | high antiviral activity effect | 0.064 to 0.094 µg/mL (≈ 0.144 to 0.211 µM) |  | 
COc1ccccc1N1CCN(C(=O)c2c(-c3ccccc3C(F)(F)F)noc2C)CC1 [Example 4] | 1.563 to 3.125 |  |  | high antiviral activity effect | 50 µg/mL (≈ 112 µM)
COc1cccc(N2CCN(C(=O)c3c(-c4ccccc4Cl)noc3C)CC2)c1 [Example 9, (3-(2-chlorophenyl)-5-methylisoxazol-4-yl)(4-(3-methoxyphenyl)piperazine-1-yl)methanone] | 3221.649 to 13020.833 | high antiviral activity effect | 0.048 to 0.097 µg/mL (≈ 0.117 to 0.236 µM) |  | 
Cc1onc(-c2cccc(F)c2)c1C(=O)N1CCN(c2ccc(Cl)c(Cl)c2)CC1 [Example 11, (4-(3,4-dichlorophenyl)piperazine-1-yl)(3-(3-fluorophenyl)-5-methylisoxazol-4-yl)methanone] | 1471.794 to 3205.128 | high antiviral activity effect | 0.195 µg/mL (≈ 0.449 µM) |  | 
COc1cccc(N2CCN(C(=O)c3c(-c4cccc(F)c4)noc3C)CC2)c1 [Example 12, (3-(3-fluorophenyl)-5-methylisoxazol-4-yl)(4-(3-methoxyphenyl)piperazine-1-yl)methanone] | 50.016 to 100.032 | high antiviral activity effect | 1.56 µg/mL (≈ 3.95 µM) |  | 
Cc1onc(-c2cccc(F)c2)c1C(=O)N1CCN(c2ccccc2O)CC1 [Example 16, (3-(3-fluorophenyl)-5-methylisoxazol-4-yl)(4-(2-hydroxyphenyl)piperazine-1-yl)methanone] | 100.032 to 200.321 | high antiviral activity effect | 0.39 to 0.781 µg/mL (≈ 1.02 to 2.05 µM) |  | 
Cc1onc(-c2ccccc2OC(F)(F)F)c1C(=O)N1CCN(c2ccc(Cl)c(Cl)c2)CC1 [Example 35, (4-(3,4-dichlorophenyl)piperazine-1-yl)(5-methyl-3-(2-(trifluoromethoxy)phenyl)isoxazol-4-yl)methanone] | 1602.564 to 3205.128 | high antiviral activity effect | 0.195 µg/mL (≈ 0.39 µM) |  | 
COc1cccc(N2CCN(C(=O)c3c(-c4ccccc4Cl)noc3N)CC2)c1 [Example 60, (5-amino-3-(2-chlorophenyl)isoxazol-4-yl)(4-(3-methoxyphenyl)piperazine-1-yl)methanone] |  | high antiviral activity effect | 0.053 to 0.094 µg/mL (≈ 0.128 to 0.228 µM) |  | 
CCOC(=O)C1CCN(C(=O)c2c(-c3ccccc3OC(F)(F)F)noc2N)CC1 [Example 124] | 12.5 |  |  | high antiviral activity effect | 25 µg/mL (≈ 58.5 µM)
CCOC(=O)C1=C[C@@H](OC(CC)CC)[C@H](NC(C)=O)[C@@H](N)C1 [Oseltamivir, reference compound] | 12.5 to 25 |  | 50 µg/mL (≈ 160 µM) |  | 

From patent US9132126B2, “Phenyl-isoxazole derivatives and preparation process thereof” (priority 2011, dated 2015)
